GI50 and TGI data for three molecules are collected here from PubChem BioAssay (NCI).

Some test systems named below: MDA-MB-435; A498 renal; SF-268 CNS; A549 NSCLC; MCF7 breast; SW-620 colon; K-562 leukemia; DU-145 prostate; M14 melanoma; KM12 colon.
What all share (assay): inhibition of tumour cell growth, NCI panel, 48 h

SMILES strings stand for the structures.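 Growth conditions: 96-well plates. Treatment: test compound, 48 hours, 5 concentrations. Analysis: linear interpolation between bracketing concentrations; unreached endpoints set to highest concentration. At the GI50, growth is halved. TGI: total growth inhibition.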

On to `C/C([O-])=C1\Cc2ccccc2C1=O.C/C([O-])=C1\Cc2ccccc2C1=O.CC[O-].CC[O-].[Ti+4]`, for which the GI50 was 17.6 µM in the assay with MDA-MB-435; 13.4 µM in the assay on A498 renal; 17.1 µM with SF-268 CNS; 28.5 µM in the assay with A549 NSCLC; 22 µM in the assay with MCF7 breast; 24.8 µM in the assay with SW-620 colon. The GI50 in the assay with K-562 leukemia was 20.3 µM; with DU-145 prostate it was 26.4 µM; in the assay on M14 melanoma, 16.8 µM; in the assay with KM12 colon, 17.3 µM. Further, the TGI in the assay on MDA-MB-435 was 43 µM; in the assay with A498 renal, 31.5 µM; in the assay on SF-268 CNS, 47.3 µM; with A549 NSCLC, more than 100 µM; in the assay on MCF7 breast, more than 100 µM; with SW-620 colon it was more than 84.9 µM. Moreover, the TGI with K-562 leukemia is more than 78.6 µM; in the assay on DU-145 prostate, more than 100 µM; with M14 melanoma, 42.3 µM; with KM12 colon it was 46.1 µM.
As to `Nc1ncnc2c1ncn2CC(O)C(=O)O` (stereo not given), the TGI in the assay on MDA-MB-435, in the assay on A498 renal, with SF-268 CNS, in the assay with A549 NSCLC, in the assay on MCF7 breast and with SW-620 colon was more than 100 µM each time. Also, the TGI with K-562 leukemia, with DU-145 prostate, in the assay on M14 melanoma and with KM12 colon was more than 100 µM in each case.
On to `CCc1cccc2c3c(sc12)C(c1ccc(Cl)cc1)C(C#N)=C(N)O3` (stereo not given), for which the GI50 in the assay on MDA-MB-435 was 0.196 µM; in the assay with A498 renal, 0.224 µM; with SF-268 CNS it was 0.933 µM; with A549 NSCLC it was 0.736 µM; with MCF7 breast, 0.334 µM; in the assay on SW-620 colon it was 0.45 µM. Moreover, the GI50 was 0.391 µM with K-562 leukemia, 0.596 µM in the assay with DU-145 prostate, 0.472 µM in the assay on M14 melanoma and 0.447 µM in the assay with KM12 colon. In addition, the TGI was 0.463 µM in the assay with MDA-MB-435; 1.52 µM in the assay with A498 renal; 22.2 µM with SF-268 CNS; 12.9 µM in the assay with A549 NSCLC; 4.66 µM in the assay with MCF7 breast; 12.2 µM in the assay with SW-620 colon. Moreover, the TGI is more than 100 µM in the assay with K-562 leukemia, 11.4 µM with DU-145 prostate, 4.79 µM in the assay on M14 melanoma and 13.1 µM in the assay on KM12 colon.
